Measured values as given in EPA's ToxRefDB 2.

Key:
rat [1] = conditions: Chronic toxicity, other, Oral, Feed, dose end: 102 week, group: systemic
dog [2] = conditions: Subchronic oral toxicity in nonrodent, beagle, Capsule, dose end: 13 week, group: systemic, systemic / clinical chemistry / albumin / albumin + systemic / clinical chemistry / protein / protein + systemic / in life observation / …
dog [3] = conditions: Chronic toxicity; beagle; Oral; Feed; dose end: 104 week; group: systemic; systemic / clinical chemistry / [other] / [other] + systemic / pathology microscopic / liver / pigmentation + systemic / pathology …
rat [4] = conditions: Subchronic oral toxicity in rodents, wistar, Feed, dose end: 13 week, group: systemic, systemic / organ weight / spleen / absolute + systemic / organ weight / spleen / relative to body weight + systemic / pathology microscopic…
mouse [5] = conditions: Carcinogenicity, cd1, Oral, Feed, dose end: 80 week, group: systemic
rat [6] = conditions: Acute dermal toxicity, other, Topical, dose end: 28 day, group: systemic, systemic / pathology microscopic / thymus / necrosis
rat [7] = conditions: Subchronic oral toxicity in rodents, wistar, Gavage/Intubation, dose end: 13 week, group: systemic
dog [8] = conditions: Subchronic oral toxicity in nonrodent, beagle, Gavage/Intubation, dose end: 13 week, group: systemic
rat [9] = conditions: Subchronic oral toxicity in rodents, sprague dawley, Gavage/Intubation, dose end: 13 week, group: systemic
rat [10] = conditions: Sub-acute repeat dose toxicity; sprague dawley; Oral; Gavage/Intubation; dose end: 6 week; group: systemic; systemic / organ weight / liver / absolute + systemic / organ weight / liver / relative to body weight + systemic / pathology microscopic / …
primate = conditions: Subchronic oral toxicity in nonrodent, macaque, Gavage/Intubation, dose end: 7 week, group: systemic, systemic / clinical chemistry / alkaline phosphatase (alp/alk) / alkaline phosphatase (alp/alk) + systemic / organ weight / liver / absolute…
mouse [11] = conditions: Subchronic oral toxicity in rodents, cd1, Gavage/Intubation, dose end: 13 week, group: systemic
[12] = systemic / clinical chemistry / [other] / [other]
[13] = systemic / clinical chemistry / [other] / [other] + systemic / pathology microscopic / intestine small / pigmentation + systemic / pathology…
[14] = systemic / pathology microscopic / stomach / ulcer + systemic / hematology / anemia / anemia - nos + systemic / hematology / hematocrit (hct…
[15] = systemic / clinical chemistry / albumin / albumin + systemic / clinical chemistry / chloride / chloride + systemic / clinical chemistry / …
[16] = systemic / clinical chemistry / albumin / albumin + systemic / clinical chemistry / protein / protein + systemic / in life observation / …
[17] = systemic / clinical chemistry / alanine aminotransferase (alt/sgpt) / alanine aminotransferase (alt/sgpt) + systemic / in life observation…
[18] = systemic / organ weight / adrenal gland / absolute
[19] = systemic / clinical chemistry / [other] / [other] + systemic / clinical chemistry / alanine aminotransferase (alt/sgpt) / alanine …
[20] = systemic / hematology / mean corpuscular (cell) volume (mcv) / mean corpuscular (cell) volume (mcv) + systemic / hematology / mean …
[21] = systemic / clinical chemistry / albumin / albumin + systemic / clinical chemistry / protein / protein + systemic / hematology / platelet / …
[22] = systemic / pathology microscopic / adrenal gland / vacuolization + systemic / pathology microscopic / liver / eosinophilic focus + systemic…

Oc1cccc2cccnc12.Oc1cccc2cccnc12.[Cu] [Copper-8-hydroxyquinoline (1:2)]
LEL (rat [1]; [12]): 0.25 mg/kg/day | NEL (rat [1]; [12]): < 0.25 mg/kg/day | LOAEL (rat [1]; [13]): 100 mg/kg/day | NOAEL (rat [1]; [13]): 25 mg/kg/day | LEL (dog [2]): 50 mg/kg/day | LOAEL (dog [2]): 50 mg/kg/day | NEL (dog [2]): 5 mg/kg/day | NOAEL (dog [2]): 5 mg/kg/day | LEL (dog [3]): 25 mg/kg/day | LOAEL (dog [3]): 25 mg/kg/day | NEL (dog [3]): 5 mg/kg/day | NOAEL (dog [3]): 5 mg/kg/day | LEL (rat [4]): 100 mg/kg/day | LOAEL (rat [4]): 100 mg/kg/day | NEL (rat [4]): 30 mg/kg/day | NOAEL (rat [4]): 30 mg/kg/day | LOAEL (mouse [5]; systemic / pathology microscopic / stomach / ulcer): 208 mg/kg/day | NEL (mouse [5]; [14]): 57.1 mg/kg/day | NOAEL (mouse [5]; [14]): 57.1 mg/kg/day | LEL (mouse [5]; systemic / pathology microscopic / stomach / ulcer + systemic / pathology microscopic / spleen / hematopoietic cell proliferation): 208 mg/kg/day | LEL (rat [6]): 1000 mg/kg/day | LOAEL (rat [6]): 1000 mg/kg/day | NEL (rat [6]): 200 mg/kg/day | NOAEL (rat [6]): 200 mg/kg/day

CCN(C(=O)c1cc(C)cc(OC[C@H](C)Nc2ccncc2)c1)C(C)C.Cc1ccc(S(=O)(=O)O)cc1
LOAEL (rat [7]; [15]): > 40 mg/kg/day | NOAEL (rat [7]; [15]): ≥ 40 mg/kg/day | LEL (rat [7]; [16]): 12 mg/kg/day | NEL (rat [7]; [16]): < 12 mg/kg/day | LOAEL (dog [8]; [17]): > 20 mg/kg/day | NOAEL (dog [8]; [17]): ≥ 20 mg/kg/day | LEL (dog [8]; [18]): 4 mg/kg/day | NEL (dog [8]; [18]): < 4 mg/kg/day

CCc1cc(SCc2sc(-c3ccc(C(F)(F)F)cc3)nc2CN2CCN(c3ccc(OC)cc3)CC2)ccc1OCC(=O)O
LOAEL (rat [9]; [19]): > 1000 mg/kg/day | NOAEL (rat [9]; [19]): ≥ 1000 mg/kg/day | LEL (rat [9]; [20]): 30 mg/kg/day | NEL (rat [9]; [20]): < 30 mg/kg/day | LEL (rat [10]): 5 mg/kg/day | LOAEL (rat [10]): > 100 mg/kg/day | NEL (rat [10]): < 5 mg/kg/day | NOAEL (rat [10]): ≥ 100 mg/kg/day | LEL (primate): 5 mg/kg/day | LOAEL (primate): > 100 mg/kg/day | NEL (primate): < 5 mg/kg/day | NOAEL (primate): ≥ 100 mg/kg/day | LOAEL (mouse [11]; [21]): > 1000 mg/kg/day | NOAEL (mouse [11]; [21]): ≥ 1000 mg/kg/day | LEL (mouse [11]; [22]): 10 mg/kg/day | NEL (mouse [11]; [22]): < 10 mg/kg/day
